According to patent US4444782A, “2(4-tert.-Butyl-2,6-dichlorophenyl-imino)imidazolidine and use as an anti-hypertension agent” (SmithKline Beckman Corporation, priority 1982, dated 1984):
Where a name gives a salt, the structure may show the parent alone. Read-outs that look alike come from different tables or passages of the source.

Tests used:
[1] = cited literature; cited from earlier work
[2] = target: T1, alpha2 receptor (guinea pig atrium) (Cavia porcellus, UniProt Q60474); test: isolated, superfused guinea pig left atrium (prejunctional alpha2 agonism)
T1 construct: isolated, superfused guinea pig left atrium; from tissue; host or cells: guinea pig left atrium (sympathetic nerve endings)
T1 sequence (Q60474 1-464): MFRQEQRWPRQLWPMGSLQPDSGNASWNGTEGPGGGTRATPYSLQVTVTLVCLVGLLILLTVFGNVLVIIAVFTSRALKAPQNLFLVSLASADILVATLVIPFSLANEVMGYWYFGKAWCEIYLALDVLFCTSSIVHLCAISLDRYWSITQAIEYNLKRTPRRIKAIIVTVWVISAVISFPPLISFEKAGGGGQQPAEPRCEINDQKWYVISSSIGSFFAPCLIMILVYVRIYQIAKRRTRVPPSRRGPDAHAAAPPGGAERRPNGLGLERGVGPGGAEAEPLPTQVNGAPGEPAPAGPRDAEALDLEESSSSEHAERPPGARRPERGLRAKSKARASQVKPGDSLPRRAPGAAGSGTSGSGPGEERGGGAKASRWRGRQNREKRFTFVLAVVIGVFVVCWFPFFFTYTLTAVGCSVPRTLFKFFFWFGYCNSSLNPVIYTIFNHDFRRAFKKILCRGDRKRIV
Description: The second type of vascular alpha receptor site to be reported is located prejunctionally on sympathetic neurons and called alpha2 sites. The protocol employed for determining this activity is the isolated, superfused guinea pig left atrium described in the cited Hieble publication.

[3] = target: alpha1 receptor (rabbit ear artery); test: isolated perfused rabbit ear artery (postjunctional alpha1 agonism); details: for EC50: isolated perfused rabbit ear artery, read-out: ED50 Alpha1 Rabbit Ear Artery
Description: Since the early work on clonidine, at least two types of vascular alpha receptor sites have been identified. A postjunctional, or postsynaptic, alpha1 receptor was initially reported. […] In the alpha test protocol in the isolated perfused rabbit ear artery described by J. P. Hieble et al., Arch.

[4] = target: T2, alpha3 (vascular postjunctional alpha2) receptor, dog saphenous vein (Canis lupus familiaris, UniProt A0A8I3Q7S8); details: for relative potency, alpha3: dog saphenous vein, clonidine versus the compound of this invention
T2 construct: the saphenous vein is located and cleaned of connective tissue; from tissue; host or cells: saphenous vein rings of mongrel dogs
T2 sequence (A0A8I3Q7S8 1-427): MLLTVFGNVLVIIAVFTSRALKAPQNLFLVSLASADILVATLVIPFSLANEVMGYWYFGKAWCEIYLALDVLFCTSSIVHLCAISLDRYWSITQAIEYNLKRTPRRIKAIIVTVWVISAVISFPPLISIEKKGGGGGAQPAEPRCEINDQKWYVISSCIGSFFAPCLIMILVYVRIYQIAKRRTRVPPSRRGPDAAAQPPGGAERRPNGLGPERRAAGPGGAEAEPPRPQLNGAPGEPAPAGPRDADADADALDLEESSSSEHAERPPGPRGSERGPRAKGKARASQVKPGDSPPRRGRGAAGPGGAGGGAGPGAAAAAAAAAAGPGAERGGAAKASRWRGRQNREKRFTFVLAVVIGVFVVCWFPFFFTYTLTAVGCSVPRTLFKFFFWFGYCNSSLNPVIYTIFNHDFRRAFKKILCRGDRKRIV
Method: (§1) Another test system to assay for vascular postjunctional alpha2 stimulation utilizes the dog saphenous vein. This activity may be called alpha3 stimulation. The protocol for this test is as follows:
(§2) Mongrel dogs of either sex are anesthetized with sodium pentobarbital (50 mg/kg, i.p.). After the dog is anesthetized, the saphenous vein is located and cleaned of connective tissue, a 2-4 cm. segment is tied at both ends and removed. The venous segment is placed in a dish of cold Krebs solution and additional cleaning is performed to remove as much non-vascular tissue as possible. Ring segments (3-4 mm.) are then cut from the vessel.
(§3) The vessel is mounted in a superfusion chamber as known to the art for the rabbit ear artery except that the insert holding the venous ring has two parallel 0.5 mm tungsten wires separated by 2 mm. The tissue is slipped over these parallel wires and the insert attached to the main block. A third tungsten wire is then inserted through the ring and attached to a force-displacement transducer.
(§4) An initial tension of 4 gm is placed on the tissue, with tension being adjusted until a stable resting tension of 2 gm. is produced. Concentration-effect curves are determined as described in the publication referred to above for the ear artery segment.

[5] = system: alpha3 (vascular postjunctional alpha2) receptor, dog saphenous vein; details: for α2/α3 Selectivity: ratio of ED50 guinea pig atrium to ED50 dog saphenous vein
Method: as §1, §2, §3, §4

normotensive rat = test: reduction of blood pressure in the normotensive rat model; assay type: in vivo; details: for ED30: iv, read-out: EC30 for the reduction of blood pressure (hypotensive effect)
Method: In the normotensive rat model, the I.V. EC30 for the reduction of blood pressure was 9.8 μg/kg.

[6] = potentiation of hexabarbitol induced sleep time (sedation); assay type: in vivo

CCc1ccc(N=C2NCCN2)c(Cl)c1 [2-(2-Chloro-4-ethylphenylimino)-imidazolidine]
sedation, in words (literature) [1]: very strong sedative or sleep inducer

Clc1cccc(Cl)c1NC1=NCCN1 [CLONIDINE HYDROCHLORIDE]
EC50 [2]: 0.017 µM
EC50 [3]: 0.29 µM
EC50 ([4]; dog saphenous vein ring, read-out: ED50 Alpha3 Dog Saphenous Vein): 0.016 µM
α2/α3 Selectivity [5]: 1

CC(C)(C)c1cc(Cl)c(N=C2NCCN2)c(Cl)c1 [COMPOUND I, 2-(4-tert.-butyl-2,6-dichlorophenylimino)imidazolidine]
EC50 ([2]; isolated superfused guinea pig left atrium, read-out: ED50 Alpha2 Guinea Pig Atrium): 0.79 µM
ED30 (normotensive rat; Rattus norvegicus): 9.8 µg/kg
EC50 [3]: 0.03 µM
agonist potency relative to clonidine, alpha1 ([3]; rabbit ear artery, compared with clonidine): eight times more potent
EC50 [4]: 0.026 µM
relative potency, alpha3 [4]: about equipotent
selectivity for the postsynaptic receptor in vitro (fold) ([5]; post- versus presynaptic receptor, in vitro, Table A): 30
α2/α3 Selectivity [5]: 30
ED50 ([6]; ip, read-out: ED50 for potentiation of hexabarbitol induced sedation): 260 µg/kg
sedative side effects, in words ([6]; summary statement): devoid of the sedative side effects

Clc1cccc(Cl)c1N=C1NCCN1 [clonidine, 2-(2,6-dichlorophenylimino)-2-imidazolidine]
activity relative to the compound of this invention, alpha2 (times as active) ([2]; guinea pig left atrium): 46
hypotensive potency relative to the compound of this invention (normotensive rat; clonidine compared with the compound of this invention): only slightly more potent
ED30 (normotensive rat; normotensive rat, I.V.): 2.3 µg/kg
sedation, in words (literature) [1]: heavy sedation
relative potency, alpha3 [4]: about equipotent
specificity between pre- and post-synaptic receptor subtypes, in words ([5]; in vitro, Table A): very little specificity
α2/α3 Selectivity [5]: 1
marked sedation at a dose lower than the compound of this invention (times lower) ([6]; compared with the compound of this invention): ~30
ED50 ([6]; iv, read-out: ED50 in the hexabarbitol sleep time assay): 9.6 µg/kg
